From patent US20260262643A1, “HERBICIDAL BENZOXAZINES” (FMC CORPORATION, priority 2022, published 2026)

Key:
oat, wild [1] = experiment: Test A postemergence; type: in vivo, Avena fatua; settings: postemergence, 10 days
Summary of the method: (§1)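 Plants were grown in loam and sand and treated preemergence or postemergence (one- to two-leaf stage, 2–10 cm) with compound in solvent plus surfactant. Response was scored against untreated controls after 10 greenhouse days, where 0 means no effect and 100 complete control.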

foxtail, giant [2] = experiment: Test A postemergence; type: in vivo, Setaria faberi; settings: postemergence, 10 days
Summary of the method: as §1

pigweed, palmer [3] = experiment: Test A postemergence; type: in vivo, Amaranthus palmeri; settings: postemergence, 10 days
Summary of the method: as §1

barnyardgrass [4] = experiment: Test A postemergence; type: in vivo, Echinochloa crusgalli; settings: postemergence, 10 days
Summary of the method: as §1

ragweed [5] = experiment: Test A preemergence; type: in vivo, Ambrosia artemisiifolia; settings: visual injury after 10 days, 0 to 100 scale, 0 is no effect, 100 is complete control
Summary of the method: as §1

foxtail, giant [6] = experiment: Test A preemergence; type: in vivo, Setaria faberi; settings: visual injury after 10 days, 0 to 100 scale, 0 is no effect, 100 is complete control
Summary of the method: as §1

blackgrass [7] = experiment: Test A postemergence; type: in vivo, Alopecurus myosuroides; settings: postemergence, 10 days
Summary of the method: as §1

corn [8] = experiment: Test A preemergence; type: in vivo, Zea mays; settings: visual injury after 10 days, 0 to 100 scale, 0 is no effect, 100 is complete control
Summary of the method: as §1

corn [9] = experiment: Test A postemergence; type: in vivo, Zea mays; settings: postemergence, 10 days
Summary of the method: as §1

wheat [10] = experiment: Test A preemergence; type: in vivo, Triticum aestivum; settings: visual injury after 10 days, 0 to 100 scale, 0 is no effect, 100 is complete control
Summary of the method: as §1

galium = experiment: Test A postemergence; type: in vivo, Galium aparine; settings: postemergence, 10 days
Summary of the method: as §1

oat, wild [11] = experiment: Test A preemergence; type: in vivo, Avena fatua; settings: visual injury after 10 days, 0 to 100 scale, 0 is no effect, 100 is complete control
Summary of the method: as §1

pigweed, palmer [12] = experiment: Test A preemergence; type: in vivo, Amaranthus palmeri; settings: visual injury after 10 days, 0 to 100 scale, 0 is no effect, 100 is complete control
Summary of the method: as §1

horseweed = experiment: Test A postemergence; type: in vivo, Erigeron canadensis; settings: postemergence, 10 days
Summary of the method: as §1

wheat [13] = experiment: Test A postemergence; type: in vivo, Triticum aestivum; settings: postemergence, 10 days
Summary of the method: as §1

ragweed [14] = experiment: Test A postemergence; type: in vivo, Ambrosia artemisiifolia; settings: postemergence, 10 days
Summary of the method: as §1

ryegrass, Italian [15] = experiment: Test A preemergence; type: in vivo, Lolium multiflorum; settings: visual injury after 10 days, 0 to 100 scale, 0 is no effect, 100 is complete control
Summary of the method: as §1

barnyardgrass [16] = experiment: Test B flooded paddy test; type: in vivo, Echinochloa crus-galli; settings: 250 g ai/ha, Flood, 13 days, 0 to 100 scale (0 no effect, 100 complete control)
Summary of the method: (§2)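 2-leaf stage; pots flooded 3 cm over soil; compound dosed into paddy water; depth kept constant. Greenhouse, 13 d. Visual rating vs controls, 0 (no effect)–100 (complete control). Dash = no result.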

rice = experiment: Test B flooded paddy test; type: in vivo, Oryza sativa; settings: 250 g ai/ha, Flood, 13 days, 0 to 100 scale (0 no effect, 100 complete control)
Summary of the method: as §2

ducksalad = experiment: Test B flooded paddy test; type: in vivo, Heteranthera limosa; settings: 250 g ai/ha, Flood, 13 days, 0 to 100 scale (0 no effect, 100 complete control)
Summary of the method: as §2

kochia [17] = experiment: Test A preemergence; type: in vivo, Bassia scoparia; settings: visual injury after 10 days, 0 to 100 scale, 0 is no effect, 100 is complete control
Summary of the method: as §1

barnyardgrass [18] = experiment: Test A preemergence; type: in vivo, Echinochloa crusgalli; settings: visual injury after 10 days, 0 to 100 scale, 0 is no effect, 100 is complete control
Summary of the method: as §1

sedge, umbrella = experiment: Test B flooded paddy test; type: in vivo, Cyperus difformis; settings: 250 g ai/ha, Flood, 13 days, 0 to 100 scale (0 no effect, 100 complete control)
Summary of the method: as §2

soybean [19] = experiment: Test A postemergence; type: in vivo, Glycine max; settings: postemergence, 10 days
Summary of the method: as §1

kochia [20] = experiment: Test A postemergence; type: in vivo, Bassia scoparia; settings: postemergence, 10 days
Summary of the method: as §1

soybean [21] = experiment: Test A preemergence; type: in vivo, Glycine max; settings: visual injury after 10 days, 0 to 100 scale, 0 is no effect, 100 is complete control
Summary of the method: as §1

ryegrass, Italian [22] = experiment: Test A postemergence; type: in vivo, Lolium multiflorum; settings: postemergence, 10 days
Summary of the method: as §1

blackgrass [23] = experiment: Test A preemergence; type: in vivo, Alopecurus myosuroides; settings: visual injury after 10 days, 0 to 100 scale, 0 is no effect, 100 is complete control
Summary of the method: as §1

[24] = 125 g ai/ha, 0 to 100 scale, 0 no effect, 100 complete control
[25] = 500 g ai/ha, visual injury, 0 to 100 scale (0 no effect, 100 complete control)

For C[C@H]1CN(C(=O)c2cc(Br)cc(-n3cncn3)c2)c2cccc(Cl)c2O1 [Compound 114], the “Oat, Wild plant response rating” value (oat, wild [1]; [24]) was 0, the “Plant response rating, Oat, Wild” value (oat, wild [1]; [25]) was 40 and the “Foxtail, Giant plant response rating” value (foxtail, giant [2]; [24]) was 70. The “Plant response rating, Foxtail, Giant” value (foxtail, giant [2]; [25]) was 90, the “Pigweed, Palmer plant response rating” value (pigweed, palmer [3]; [24]) was 40 and the “Plant response rating, Pigweed, Palmer” value (pigweed, palmer [3]; [25]) was 100. The “Barnyardgrass plant response rating” value (barnyardgrass [4]; [24]) was 10, the “Plant response rating, Barnyardgrass” value (barnyardgrass [4]; [25]) was 70 and the “Plant response rating, Ragweed” value (ragweed [5]; 125 g ai/ha) was 0. The “Plant response rating, Ragweed” value (ragweed [5]; 500 g ai/ha) was 0, the “Plant response rating, Foxtail, Giant” value (foxtail, giant [6]; 125 g ai/ha) was 80 and the “Plant response rating, Foxtail, Giant” value (foxtail, giant [6]; 500 g ai/ha) was 100. The “Blackgrass plant response rating” value (blackgrass [7]; [24]) was 50, the “Plant response rating, Blackgrass” value (blackgrass [7]; [25]) was 90 and the “Plant response rating, Corn” value (corn [8]; 125 g ai/ha) was 0. The “Plant response rating, Corn” value (corn [8]; 500 g ai/ha) was 0, the “Corn plant response rating” value (corn [9]; [24]) was 50 and the “Plant response rating, Corn” value (corn [9]; [25]) was 80. The “Plant response rating, Wheat” value (wheat [10]; 125 g ai/ha) was 20, the “Plant response rating, Wheat” value (wheat [10]; 500 g ai/ha) was 50 and the “Galium plant response rating” value (galium; [24]) was 60. The “Plant response rating, Galium” value (galium; [25]) was 70, the “Plant response rating, Oat, Wild” value (oat, wild [11]; 125 g ai/ha) was 0 and the “Plant response rating, Oat, Wild” value (oat, wild [11]; 500 g ai/ha) was 20. The “Plant response rating, Pigweed, Palmer” value (pigweed, palmer [12]; 125 g ai/ha) was 50, the “Plant response rating, Pigweed, Palmer” value (pigweed, palmer [12]; 500 g ai/ha) was 90 and the “Horseweed plant response rating” value (horseweed; [24]) was 0. The “Plant response rating, Horseweed” value (horseweed; [25]) was 0, the “Wheat plant response rating” value (wheat [13]; [24]) was 10 and the “Plant response rating, Wheat” value (wheat [13]; [25]) was 40. The “Ragweed plant response rating” value (ragweed [14]; [24]) was 0, the “Plant response rating, Ragweed” value (ragweed [14]; [25]) was 0 and the “Plant response rating, Ryegrass, Italian” value (ryegrass, Italian [15]; 125 g ai/ha) was 50. For the same molecule, the “Plant response rating, Ryegrass, Italian” value (ryegrass, Italian [15]; 500 g ai/ha) was 90, the “Plant response rating, Barnyardgrass” value (barnyardgrass [16]) was 0 and the “Plant response rating, Rice” value (rice) was 0. The “Plant response rating, Ducksalad” value (ducksalad) was 0, the “Plant response rating, Kochia” value (kochia [17]; 125 g ai/ha) was 0 and the “Plant response rating, Kochia” value (kochia [17]; 500 g ai/ha) was 20. For the same molecule, the “Plant response rating, Barnyardgrass” value (barnyardgrass [18]; 125 g ai/ha) was 30, the “Plant response rating, Barnyardgrass” value (barnyardgrass [18]; 500 g ai/ha) was 90 and the “Plant response rating, Sedge, Umbrella” value (sedge, umbrella) was 0. The “Soybean plant response rating” value (soybean [19]; [24]) was 60, the “Plant response rating, Soybean” value (soybean [19]; [25]) was 100 and the “Kochia plant response rating” value (kochia [20]; [24]) was 40. The “Plant response rating, Kochia” value (kochia [20]; [25]) was 80, the “Plant response rating, Soybean” value (soybean [21]; 125 g ai/ha) was 0 and the “Plant response rating, Soybean” value (soybean [21]; 500 g ai/ha) was 0. For the same molecule, the “Ryegrass, Italian plant response rating” value (ryegrass, Italian [22]; [24]) was 50, the “Plant response rating, Ryegrass, Italian” value (ryegrass, Italian [22]; [25]) was 70 and the “Plant response rating, Blackgrass” value (blackgrass [23]; 125 g ai/ha) was 30. For the same molecule, the “Plant response rating, Blackgrass” value (blackgrass [23]; 500 g ai/ha) was 70.
